The target of one series is T1, NURR-1/RXRα (Homo sapiens, UniProt P19793).
T1 construct: expressed in transfected cells; host or cells: Cos-7 cells
Put plainly: Transactivation test, NURR-1-Gal4/RXRα, luciferase reporter in Cos-7 cells. It is filed as cell-based. On the technique in general: Reporter assays use an easily measured gene product as a stand-in for the process of interest.

For a further series, the target named is T2, NURR-1/RXRγ (Homo sapiens, UniProt P48443).
T2 construct: expressed in transfected cells; host or cells: Cos-7 cells
Put plainly: Transactivation test, NURR-1-Gal4/RXRγ, luciferase reporter in Cos-7 cells. It is filed as cell-based.

In series [1] the test system is dopaminergic neurons of primary culture of rat embryo mesencephalon treated with MPP+. Put plainly: Neuroprotection in primary culture of rat embryo mesencephalon treated with MPP+ (count of tyrosine hydroxylase expressing cells). The conditions noted are these: recombinant human BDNF 10 ng/mL = 100%, 2 days with MPP+. It is filed as cell-based. Summed up: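 Rat embryo (E15) mesencephalon cultures, 5 days, then MPP+ with or without compound on day 6 for 2 days. Tyrosine hydroxylase-immunolabelled cells counted by image analysis; activity expressed as percent of recombinant human BDNF (10 ng/mL) reference, set at 100%.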

Series [2] can be described thus: Plasma pharmacokinetics in mice after oral administration. It is filed as in vivo. The following applies: mouse, male C57/Bl6 mice, oral 10 mg/kg. Summed up: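 Male C57/B16 mice (25-30 g, fed, 9 per dose) received 10 mg/kg by oral gavage as a suspension in 1% methylcellulose 400 cps/0.1% Poloxamer 188/water. Plasma was sampled at 15 min, 30 min, 1 h, 3 h and 7 h and quantified by LC-MS/MS after protein precipitation. Parameters were derived non-compartmentally, with AUC by the log-linear trapezoidal method.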

Series [3] can be described thus: Brain penetration in rats after intravenous administration. It is filed as in vivo. The following applies: rat. Summed up:
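Male Wistar rats (250-300 g, fed, n=4) received test compound by 4-hour jugular vein infusion at 4 mg/kg in 2% Cremophor EL/0.9% NaCl. At the end of infusion, plasma and brain homogenate were analysed by LC-MS/MS; Kp is the brain-to-plasma concentration ratio after 4 hours.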

The structures appear in SMILES notation.

The term Emax denotes the size of the effect at its maximum, as opposed to the concentration needed. A word on the EC50: it is the concentration giving half of the maximal effect. Broadly, the Cmax is the maximum level reached in the sampled fluid or tissue. For orientation: Kp means tissue or fluid exposure divided by exposure in the circulation.

T1 sequence (P19793 whole entry): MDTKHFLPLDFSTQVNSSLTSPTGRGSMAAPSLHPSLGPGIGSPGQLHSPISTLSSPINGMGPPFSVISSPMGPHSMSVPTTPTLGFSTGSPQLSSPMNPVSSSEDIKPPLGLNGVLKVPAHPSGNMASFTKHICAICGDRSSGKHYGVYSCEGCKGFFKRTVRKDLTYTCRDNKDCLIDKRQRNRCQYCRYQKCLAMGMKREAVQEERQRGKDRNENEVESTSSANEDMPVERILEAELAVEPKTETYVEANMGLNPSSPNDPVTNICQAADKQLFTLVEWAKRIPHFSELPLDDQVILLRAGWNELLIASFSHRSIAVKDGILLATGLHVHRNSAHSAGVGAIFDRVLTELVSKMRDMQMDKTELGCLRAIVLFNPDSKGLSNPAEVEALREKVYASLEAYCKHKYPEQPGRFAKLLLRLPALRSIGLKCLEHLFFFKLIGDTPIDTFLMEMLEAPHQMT
T1 sequence (P43354 whole entry partner): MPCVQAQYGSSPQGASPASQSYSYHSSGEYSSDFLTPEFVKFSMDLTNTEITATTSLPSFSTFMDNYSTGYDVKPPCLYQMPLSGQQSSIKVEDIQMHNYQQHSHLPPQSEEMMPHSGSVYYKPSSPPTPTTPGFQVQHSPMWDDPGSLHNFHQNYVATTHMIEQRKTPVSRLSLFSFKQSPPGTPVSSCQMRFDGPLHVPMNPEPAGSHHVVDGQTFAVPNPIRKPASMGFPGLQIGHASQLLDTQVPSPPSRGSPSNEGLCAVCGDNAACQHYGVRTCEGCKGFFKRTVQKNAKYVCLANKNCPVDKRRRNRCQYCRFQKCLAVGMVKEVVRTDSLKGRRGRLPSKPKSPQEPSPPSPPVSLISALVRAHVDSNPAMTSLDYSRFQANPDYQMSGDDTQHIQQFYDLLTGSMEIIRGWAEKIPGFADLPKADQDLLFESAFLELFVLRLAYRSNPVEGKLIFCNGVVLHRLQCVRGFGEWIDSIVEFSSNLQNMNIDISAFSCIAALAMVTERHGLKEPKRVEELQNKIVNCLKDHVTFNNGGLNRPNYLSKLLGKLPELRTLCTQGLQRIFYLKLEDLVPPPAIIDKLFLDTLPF
T1 sequence (P04386 1-147 partner limits assumed): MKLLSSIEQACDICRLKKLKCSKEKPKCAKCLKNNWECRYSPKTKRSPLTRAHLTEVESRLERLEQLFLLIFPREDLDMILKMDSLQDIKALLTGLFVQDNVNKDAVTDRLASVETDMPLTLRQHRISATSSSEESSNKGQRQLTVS
T2 sequence (P48443 whole entry): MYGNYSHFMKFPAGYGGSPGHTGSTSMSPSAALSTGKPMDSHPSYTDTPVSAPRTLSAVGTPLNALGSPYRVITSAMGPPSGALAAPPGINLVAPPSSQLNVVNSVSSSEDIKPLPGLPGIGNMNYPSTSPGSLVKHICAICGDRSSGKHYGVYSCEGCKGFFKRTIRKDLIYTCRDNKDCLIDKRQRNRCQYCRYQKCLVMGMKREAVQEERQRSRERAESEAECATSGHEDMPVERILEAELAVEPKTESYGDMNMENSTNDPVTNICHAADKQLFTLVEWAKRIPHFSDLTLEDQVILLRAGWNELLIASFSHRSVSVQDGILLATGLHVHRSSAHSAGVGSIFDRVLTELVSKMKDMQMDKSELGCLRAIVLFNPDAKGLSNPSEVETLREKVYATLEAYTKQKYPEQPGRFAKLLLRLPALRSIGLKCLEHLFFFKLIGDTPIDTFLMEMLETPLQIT
T2 sequence (P43354 whole entry partner): as the sequence (P43354 whole entry partner) above
T2 sequence (P04386 1-147 partner limits assumed): as the sequence (P04386 1-147 partner limits assumed) above

As to `O=C(O)C1CN(c2cccc(N3c4ccc(C(F)(F)F)cc4CC3Cc3ccccc3)c2)C1` (stereo not shown) [Example 147, 1-[3-[2-benzyl-5-(trifluoromethyl)indolin-1-yl]phenyl]azetidine-3 carboxylic acid], the Emax came to 68% on NURR-1/RXRα (COS-7, induction level relative to reference XCT0135908 at 2×10^−5 M (=100%), read-out: hNurr1_RXRaFL Emax (%)) and 50% at NURR-1/RXRγ (COS-7, induction level relative to reference XCT0135908 at 2×10^−5 M (=100%), read-out: hNurr1_RXRgFL Emax (%)). Moreover, the EC50 on NURR-1/RXRα (Cos-7 cells, NURR-1-Gal4/RXRα, luciferase reporter, read-out: hNurr1_RXRaFL EC50) was determined as 44 nM; on NURR-1/RXRγ (Cos-7 cells, NURR-1-Gal4/RXRγ, luciferase reporter, read-out: hNurr1_RXRgFL EC50), 87 nM. For the same molecule, the “percentage of activity relative to the BDNF reference” value in series [1] (compound 1 μM) was found to be 53%; in series [1] (compound 10 μM) it was 104%. The AUC in series [2] (sampling 15 min to 7 h, log-linear trapezoidal method, read-out: AUCplasma) was determined as 143 µg·h/mL. For the same molecule, in series [2] (suspension in 1% methylcellulose/0.1% Poloxamer 188), the highest level (Cmax) was 33000 ng/mL. The Kp at 4 h in series [3] (male, Wistar, intravenous, 4 mg/kg, ratio of Cmax brain to Cmax plasma after the 4 hours of infusion, rats, read-out: Kp (partition coefficient between the brain and the plasma)) amounted to 0.12. The molecule further returned a Cmax at 4 h in series [3] (male Wistar rats, 4 mg/kg iv infusion into the jugular vein for 4 hours, plasma at end of infusion) of 7910 ng/mL.

Values taken from US20170066717A1, “NEW PHENYLAZETIDINECARBOXYLATE OR -CARBOXAMIDE COMPOUNDS” (INVENTIVA, priority 2014, published 2017).
